US20090023784A1, “USE OF DEFERIPRONE AND METHODS TO TREAT AND/OR PREVENT FRIEDREICH ATAXIA RESULTING FROM INTRACELLULAR MISHANDLING OF IRON” (priority 2006, published 2009)

Assays:
[1] = Serum deferiprone time-concentration profile (HPLC) in the 52-week monkey study; format: in vivo, cynomolgus monkeys; conditions: 75 mg/kg twice daily
Method: (§1) Groups of 4 male and 4 female monkeys (2 to 3 years old) were dosed by nasogastric intubation at (0.5% w/v aqueous carboxymethylcellulose vehicle) 75 mg/kg deferiprone twice daily (bid), with 6-8 hours between doses, for at least 364 days.
(§2) Clinical signs, body weights and food intake were assessed at frequent intervals. Ophthalmological and cardiovascular examinations were carried out in Weeks 17, 30, 43, 56 and 60. Hematology, coagulation, clinical chemistry and urine parameters were measured at baseline and in Weeks 8, 16, 30, 41, 56 and 60. Blood samples were taken on the first day of dosing, and in Weeks 17 and 56 for assessment of the serum deferiprone time-concentration profile. A full necropsy was performed on each animal, selected organs weighed, and histopathological examination of abnormalities and selected tissues conducted.

iron-loaded rats = test: Tissue iron content (ICP-MS) in iron-loaded rats treated with deferiprone; format: in vivo; conditions: 100 mg/kg daily oral gavage
Method: As part of a larger study comparing iron chelators, we conducted histologic examination and electron microscopy (EM) of tissues following iron loading (100 mg/kg iron dose intraperitoneally twice weekly for four weeks) in rats (200-250 g) and treatment with deferiprone. Two control groups of rats were studied, one with no iron loading (“Naïve”) and the other with iron loading but no iron chelation.
Deferiprone was administered five times weekly (daily Monday to Friday). The animals received 89 doses in 127 days of 100 mg/kg daily, by oral gavage.
Iron content in micrograms per gram dry tissue±SD as determined by ICP-MS

[2] = 52-week twice daily oral (gavage) toxicity study of deferiprone in non-iron-loaded monkeys; format: in vivo, cynomolgus monkeys
Method: As part of a larger study on the potential toxicity of iron chelators, we evaluated the toxicity of deferiprone in normal monkeys receiving 150 mg/kg/day (75 mg/kg twice daily) for 1 year.
To determine the toxicity of deferiprone in non-iron-loaded cynomolgus monkeys following twice daily oral (gavage) administration for 52 consecutive weeks, and to evaluate the regression of any toxic effect during a 4-week treatment-free period.
as §1, §2

[3] = test system: intracellular iron pools of macrophages, hepatocytes, and cardiomyocyte cell lines; conditions: living cells, fluorescence probes; cited from earlier work
[4] = Pilot trial: adverse events and biological parameters (hemoglobin, plasma iron, ferritin); format: in vivo, human
From the text: Ten adolescents (four males, six females aged 14 to 23 yrs) with a diagnosis of Friedreich ataxia, confirmed by detection of a trinucleotide-repeat expansion in the first intron of the frataxin gene, were studied. Patients received deferiprone (Ferriprox™, Apotex Inc., Toronto, Canada) orally, in two doses for 1-5 months. Three patients were included, sequentially, for a minimum period of two months at each dose. Patient enrollment was staggered by two-weeks to enable monitoring of response. In the absence of toxicity, and with evidence of efficacy in any of the first 3 patients, a second group of 3 patients would be included at the same dose for a total duration of 6 months. If there was an absence of both efficacy and toxicity, the second group of three patients would be administered a higher dose. If toxicity developed, the current dose would be suspended and the trial resumed with the next group of patients at a lower dose. The patients were on idebenone (10 mg/kg/day, in three doses) for at least two years prior to inclusion and were kept on the drug at the same dose for the duration of the trial. MRI examinations were done at inclusion and at 1, 2, 4 and 6 months. The protocol was promoted by Assistance Publique-Hopitaux de Paris and approved by the local ethical committee and registered at the National Health Authority (AFSSAPS) and at the International Protocol Registration System (www.clinicaltrials.gov). A written informed consent was obtained from patients and parents.
The International Cooperative Ataxia Rating Score (ICARS) was used to assess the symptoms of ataxia before and after 1-5 months (Cano et al. International cooperative ataxia rating scale (ICARS): Appropriate for studies of Friedreich's ataxia? Mov Disord 2005; 20:1585-91). […] Patients were monitored for neutropenia, agranulocytosis, musculoskeletal pains and zinc deficiency and had weekly blood counts, plasma iron, serum ferritin and transferrin concentration measurements, as well as assessments of renal and liver function.

Cc1c(O)c(=O)ccn1C [Deferiprone, 3-hydroxy-1,2-dimethylpyridin-4-one]
peak concentration relative to thalassemia patients treated with 25 mg/kg three times daily [1]: about three times
deferiprone detectable in serum for up to ([1]; HPLC): up to 7 h
deferiprone detectable in serum from (time after dosing) ([1]; HPLC): ≥ 0.5 h
half-life ([1]; both sexes, cynomolgus monkey, serum, oral, range in individuals): 0.35 to 2.39 h
Iron content, Skeletal Muscle (iron-loaded rats; 89 doses in 127 days, ±SD, Fe-control 205 ± 109, Naive 50 ± 17): 146 ± 49 micrograms per gram dry tissue
Iron content, Thyroid (iron-loaded rats; 89 doses in 127 days, ±SD, Fe-control 583 ± 275, Naive 95 ± 13): 425 ± 228 micrograms per gram dry tissue
Iron content, Kidney (iron-loaded rats; 89 doses in 127 days, ±SD, Fe-control 801 ± 39, Naive 305 ± 80): 642 ± 104 micrograms per gram dry tissue
Iron content, Heart (iron-loaded rats; 89 doses in 127 days, ±SD, Fe-control 1,088 ± 36, Naive 276 ± 25): 586 ± 143 micrograms per gram dry tissue
Iron content, Lung (iron-loaded rats; 89 doses in 127 days, ±SD, Fe-control 1,234 ± 227, Naive 376 ± 45): 1065 ± 101 micrograms per gram dry tissue
Iron content, Liver (iron-loaded rats; 89 doses in 127 days, ±SD, Fe-control 11,534 ± 554, Naive 376 ± 127): 7,780 ± 1,637 micrograms per gram dry tissue
effect on iron levels in organs (iron-loaded rats; iron-loaded rats): decreased the iron levels in the liver and heart and most other organs
adverse effect (conclusion) ([2]; 75 mg/kg twice daily orally for 52 weeks): without significant adverse effect
Clinical signs ([2]; 75 mg/kg twice daily, 52 weeks): incidental to administration of deferiprone by the IP route
deferiprone-related effects on body weight, food intake, ophthalmology, cardiac conduction, blood pressure, heart rate, hematology or urine composition ([2]; 75 mg/kg twice daily, oral gavage, 52 weeks): no deferiprone-related effects
microscopic findings ([2]; 75 mg/kg twice daily, oral gavage, 52 weeks, histopathology): No microscopic findings
macroscopic findings ([2]; 75 mg/kg twice daily, oral gavage, 52 weeks, necropsy): No macroscopic findings related to deferiprone
access to intracellular iron pools / chelation [3]: readily enter most cells and efficiently reach the major intracellular sites of iron accumulation
signs of toxicity ([4]; 20 mg/kg/day oral): without signs of toxicity, other than minor adverse effects, such as nausea
adverse events ([4]; 80 mg/kg/day oral, first patient (P1), terminated at day 17, slowly reversed on drug termination): fatigue, headache, nausea, dizziness, then floppiness, poor head control, abnormal eye movements and fluctuating consciousness
impact on the levels of hyposideremic anemia and hypoferritinemia ([4]; regardless of the dose (20 and 30 mg/kg/day)): negligible impact
